According to patent US12121545B2, “Composition for a fecal-derived sterilized postbiotic in anti-aging and neurotherapeutic applications” (priority 2022, dated 2024):

Assays:
[1] = system: C. elegans adult animals; assay: Lifespan of C. elegans adult animals (Kaplan-Meier survival); format: in vivo
Description: In a embodiments, organisms may include a vehicle control 204. In an embodiment, organisms may be treated with at least 0.05 mg/ml 208 of composition 100 and compared to a “vehicle control,” which as used in this disclosure, may include organisms not treated with composition 100. Lifespan data was represented as the percent of organism surviving over time, known as the Kaplan-Meier Estimate of Survival function.
Chart 212 illustrates the impact of resveratrol 216 at 100 μM; and rapamycin 220 at 50 μM; composition 100 at 0.05 mg/ml 208, 0.25 mg/ml 224, and 1.25 mg/ml 228; resveratrol at 100 μM; and rapamycin at 50 μM. In another non-limiting example, subjects, for instance, C. elegans, may be divided into five groups, with each group receiving a different concentration of composition (0.05 mg/mL 208, 0.25 mg/mL 224, or 1.25 mg/mL 228), vitamin C as a positive control (10 mM), or dimethyl sulfoxide (DMSO) as a negative control (0.05% DMSO).

[2] = system: Caenorhabditis elegans; assay: Oxidative stress tolerance after paraquat exposure; format: in vivo; conditions: 10 mM, positive control; over 24 hours post-exposure; negative control (DMSO) declined 41%
Text: Still referring to FIG. 1, composition 100 may be configured to improve oxidative stress tolerance, preserve mitochondrial function, support energy production, enhance cellular defense mechanisms against oxidative stress, stimulate endogenous antioxidants and enzymes, reduce oxidative stress and/or mitochondrial oxidative stress, improve mitochondrial function, improve healthspan, improve longevity, improve autophagy, increase autophagy, or the like. Oxidative stress and healthspan disclosed herein are further described below. For the purposes of this disclosure, “oxidative stress” is a physiological state characterized by an imbalance between the production of reactive oxygen species and the body's antioxidant defenses. In a non-limiting example, reactive oxygen species (ROS) can be generated endogenously as byproducts of cellular metabolism; for instance in the mitochondria. In another non-limiting example, ROS can be generated exogenously in the result of environmental pollutants, radiation, cigarette smoking, alcohol, certain foods, and drugs. In a healthy human, the body's antioxidant defenses can neutralize these molecules before they cause significant cellular damage. However, when their production overwhelms the body's capacity to neutralize and eliminate them, they can cause widespread cellular damage. […]

[3] = 50 μM, * p<0.05 vs negative control
[4] = 100 μM, * p<0.05 vs negative control

CO[C@H]1C[C@@H]2CC[C@@H](C)[C@@](O)(O2)C(=O)C(=O)N2CCCC[C@H]2C(=O)O[C@H]([C@H](C)C[C@@H]2CC[C@@H](O)[C@H](OC)C2)CC(=O)[C@H](C)/C=C(\C)[C@@H](O)[C@@H](OC)C(=O)[C@H](C)C[C@H](C)/C=C/C=C/C=C/1C [Rapamycin, rapamycin]
age at 25% Mortality [1, 3]: 24.6* days
age at 50% Mortality (median lifespan) [1, 3]: 29.5* days
age at 75% Mortality [1, 3]: 32.8* days
age at 90% Mortality [1, 3]: 35.7* days
age at 95% Mortality [1, 3]: 36.1* days

Oc1ccc(C=Cc2cc(O)cc(O)c2)cc1 [Resveratrol, resveratrol]
age at 90% Mortality ([1]; 100 μM): 30.2 days
age at 25% Mortality [1, 4]: 22.4* days
age at 50% Mortality (median lifespan) [1, 4]: 25.5* days
age at 75% Mortality [1, 4]: 28.3* days
age at 95% Mortality [1, 4]: 32.3* days

O=C1O[C@H]([C@@H](O)CO)C(O)=C1O [vitamin C]
average decline after paraquat-induced oxidative stress [2]: 25%
